The first experiment deals with S. pneumoniae Topoisomerase IV ATPase (ParE) (Streptococcus pneumoniae serotype 4, UniProt Q59961). Nature of the experiment: S. pneumoniae Topoisomerase IV ATPase inhibition. Format: biochemical. Particulars: values marked * are an average of two or more data points. The gist of the method: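 S. pneumoniae ParE (1.25 nM) ATPase with 160 μM ATP and 5 μg/ml sheared DNA in pH 8.0 Tris, Mg2+, DTT, Brij-35; phosphate detected by malachite green/molybdate at 650 nm. Normalised to 2% DMSO (0%) and 20 μM EDTA (100%); IC50 from 10 concentrations.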
Chain of S. pneumoniae Topoisomerase IV ATPase (ParE) (Q59961 whole entry): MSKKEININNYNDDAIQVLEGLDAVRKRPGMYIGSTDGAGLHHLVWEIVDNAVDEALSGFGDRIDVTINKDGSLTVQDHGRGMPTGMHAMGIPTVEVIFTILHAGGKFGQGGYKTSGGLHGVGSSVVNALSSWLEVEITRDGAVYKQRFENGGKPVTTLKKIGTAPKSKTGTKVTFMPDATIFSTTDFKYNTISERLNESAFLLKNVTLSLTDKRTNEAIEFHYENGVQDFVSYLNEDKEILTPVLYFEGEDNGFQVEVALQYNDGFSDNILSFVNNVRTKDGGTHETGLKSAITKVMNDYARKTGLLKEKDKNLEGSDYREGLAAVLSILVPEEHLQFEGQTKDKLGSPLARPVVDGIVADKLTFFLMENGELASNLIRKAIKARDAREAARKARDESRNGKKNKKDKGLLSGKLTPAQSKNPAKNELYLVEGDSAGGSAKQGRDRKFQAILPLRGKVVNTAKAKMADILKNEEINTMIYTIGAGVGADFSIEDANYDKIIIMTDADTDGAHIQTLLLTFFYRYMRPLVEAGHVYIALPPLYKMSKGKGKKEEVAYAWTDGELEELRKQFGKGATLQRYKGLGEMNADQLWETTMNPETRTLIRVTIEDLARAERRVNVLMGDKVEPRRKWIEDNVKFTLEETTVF
For the compound `O=C(O)[C@@H]1C[C@H]1c1cccc(-c2cnc(Nc3ccc(F)c(Cl)c3)nc2-n2ccc(C(F)(F)F)n2)c1` [Example 575, (1R,2R)-2-(3-(2-(3-chloro-4-fluorophenvlamino)-4-(3-(trifluoromethyl)-1H-pyrazol-1-yl)pyrimidin-5-yl)phenyl)cyclopropanecarboxylic acid], the “% Inh (13 μM) of S. pneumoniae Topoisomerase IV ATPase” value is 100%.

Staying with this experiment, now noted: values marked * are an average of two or more data points, 13 µM.
In the case of `O=C(O)/C=C/c1cccc(-c2cnc(Nc3ccc(F)c(Cl)c3)nc2N[C@H]2CCOC2)c1` [Example 958], the “% Inh (13 μM) of S. pneumoniae Topoisomerase IV ATPase” value is on record as 93%.

Staying with this experiment, now noted: values marked * are an average of two or more data points, read-out: % Inh (13 μM) of S. pneumoniae Topoisomerase IV ATPase.
Consider `COc1cc(Nc2ncc(-c3cnc(SC)c(C(=O)O)c3)c(-n3ccc(C(F)(F)F)n3)n2)cc(OC)c1` [Example 851, 5-{2-[(3,5-dimethoxyphenyl)amino]-4-[3-(trifluoromethyl)-1H-pyrazol-1-yl]pyrimidin-5-yl}-2-(methylsulfanyl)pyridine-3-carboxylic acid], for which the inhibition at 13 µM was found to be 98%. Regarding `CCOC(=O)c1cc2cc(-c3cnc(Nc4ccc(F)c(Cl)c4)nc3N3CCOCC3)ccc2[nH]1` [Example 1054, Ethyl 5-(2-(3-chloro-4-fluorophenylamino)-4-morpholinopyrimidin-5-yl)-1H-indole-2-carboxylate], the inhibition at 13 µM is 0%. On the same count and under the same terms, for `COCCn1cc(-c2cnc(Nc3cc(OC)cc(OC)c3)nc2-n2nc(C(F)(F)F)cc2C)cc(C(=O)NS(C)(=O)=O)c1=O` [Example 1161, 5-(2-(3,5-dimethoxyphenylamino)-4-(5-methyl-3-(trifluoromethyl)-1H-pyrazol-1-yl)pyrimidin-5-yl)-1-(2-methoxyethyl)-N-(methylsulfonyl)-2-oxo-1,2-dihydropyridine-3-carboxamide] the value was 81%. With `CCOC(=O)c1cncc(-c2cnc(Nc3ccc(F)c(Cl)c3)nc2NCc2cccnc2)c1` [Example 96, 5-{2-(3-Chloro-4-fluoro-phenylamino)-4-[(pyridin-3-ylmethyl)-amino]-pyrimidin-5-yl}-nicotinic acid ethyl ester], the inhibition at 13 µM turned out to be 62.2%. The same measure, in the same setting: for `CCOC(=O)/C=C/c1cccc(-c2cnc(Nc3ccc(F)c(Cl)c3)nc2N2CCCCC2)c1` [Example 171, (E)-ethyl 3-(3-(2-(3-chloro-4-fluorophenylamino)-4-(piperidin-1-yl)pyrimidin-5-yl)phenyl)acrylate] the value was 3.62%. Turning to `COc1ncc(-c2cnc(Nc3ccc(F)c(Cl)c3)nc2-n2ccc(C(F)(F)F)n2)cc1C(=O)O` [Example 1066, 5-(2-(3-chloro-4-fluorophenylamino)-4-(3-(trifluoromethyl)-1H-pyrazol-1-yl)pyrimidin-5-yl)-2-methoxynicotinic acid], the inhibition at 13 µM came to 100%. On the same count and under the same terms, to `Cn1ccnc1COc1ncc(-c2cnc(Nc3ccc(F)c(Cl)c3)nc2-n2ccc(C(F)(F)F)n2)cc1C(=O)O` [Example 961, 5-(2-(3-chloro-4-fluorophenylamino)-4-(3-(trifluoromethyl)-1H-pyrazol-1-yl)pyrimidin-5-yl)-2-((1-methyl-1H-imidazol-2-yl)methoxy)nicotinic acid] belongs 100%; to `COc1cc(Nc2ncc(-c3cnc(OC)c(C(=O)NS(=O)(=O)CCN4C(=O)CCC4=O)c3)c(-n3nc(C(F)(F)F)cc3C)n2)cc(OC)c1` [Example 848, 5-{2-[(3,5-dimethoxyphenyl)amino]-4-[5-methyl-3-(trifluoromethyl)-1H-pyrazol-1-yl]pyrimidin-5-yl}-N-{[2-(2,5-dioxopyrrolidin-1-yl)ethyl]sulfonyl}-2-methoxypyridine-3-carboxamide], 100%; to `COc1cc(Nc2ncc(-c3cnc(OC)c(C(=O)NS(=O)(=O)c4cn(C)nc4C(F)(F)F)c3)c(-n3nc(C(F)(F)F)cc3C)n2)cc(OC)c1` [Example 845, 5-{2-[(3,5-dimethoxyphenyl)amino]-4-[5-methyl-3-(trifluoromethyl)-1H-pyrazol-1-yl]pyrimidin-5-yl}-2-methoxy-N-{[1-methyl-3-(trifluoromethyl)-1H-pyrazol-4-yl]sulfonyl}pyridine-3-carboxamide], 92%.

For the compound `CCOC(=O)c1cncc(-c2cnc(Nc3ccc(F)c(Cl)c3)nc2NCCCN2CCS(=O)(=O)CC2)c1` [Example 105, 5-{2-(3-Chloro-4-fluoro-phenylamino)-4-[3-(1,1-dioxo-1λ^6-thiomorpholin-4-yl)-propylamino]-pyrimidin-5-yl}-nicotinic acid ethyl ester], the inhibition at 13 µM was 79.2%. As to `Cc1cc(C(F)(F)F)nn1-c1nc(Nc2ccc(F)c(Cl)c2)ncc1-c1cnc(OC(C)c2ccncc2)c(C(=O)O)c1` (centres unmarked) [Example 791, 5-{2-[(3-chloro-4-fluorophenyl)amino]-4-[5-methyl-3-(trifluoromethyl)-1H-pyrazol-1-yl]pyrimidin-5-yl}-2-[1-(pyridin-4-yl)ethoxy]pyridine-3-carboxylic acid], the inhibition at 13 µM came out at 97%. Still for that read-out and setting: for `O=C(O)c1cncc(-c2cnc(Nc3ccc(F)c(Cl)c3)nc2N2CCC2)c1` [Example 253, 5-[4-(azetidin-1-yl)-2-[(3-chloro-4-fluorophenyl)amino]-pyrimidin-5-yl]pyridine-3-carboxylic acid] the value was 75.1%. For the compound `COc1cc(Nc2ncc(-c3cnc(SC)c(C(=O)NS(C)(=O)=O)c3)c(-n3nc(C(F)(F)F)cc3C)n2)cc(OC)c1` [Example 855, 5-{2-[(3,5-dimethoxyphenyl)amino]-4-[5-methyl-3-(trifluoromethyl)-1H-pyrazol-1-yl]pyrimidin-5-yl}-2-(methylsulfanyl)-N-(methylsulfonyl)pyridine-3-carboxamide], the inhibition at 13 µM worked out at 94%. Regarding `Cc1cc(C)cc(Nc2ncc(-c3cccc(/C=C/C(=O)O)c3)c(-n3ccc(C(F)(F)F)n3)n2)c1` [Example 617, (2E)-3-(3-{2-[(3,5-dimethylphenyl)amino]-4-[3-(trifluoromethyl)-1H-pyrazol-1-yl]pyrimidin-5-yl}phenyl)prop-2-enoic acid], the inhibition at 13 µM was found to be 100%. On to `CC(=O)NC1CCN(c2nc(Nc3ccc(F)c(Cl)c3)ncc2-c2cncc(C(=O)O)c2)CC1` [Example 256, 5-[4-(4-acetamidopiperidin-1-yl)-2-[(3-chloro-4-fluorophenyl)amino]-pyrimidin-5-yl]pyridine-3-carboxylic acid], for which the inhibition at 13 µM is 78.8%. On to `O=C(O)c1cc2cc(-c3cnc(Nc4ccc(F)c(Cl)c4)nc3N3CCOCC3)ccc2[nH]1` [Example 1064, 5-(2-(3-Chloro-4-fluorophenylamino)-4-morpholinopyrimidin-5-yl)-1H-indole-2-carboxylic acid], for which the inhibition at 13 µM amounted to 100%. Same read-out and setting: to `Cc1cnc(CNc2nc(Nc3ccc(F)c(Cl)c3)ncc2-c2cncnc2)cn1` [Example 58, N^2-(3-chloro-4-fluorophenyl)-N^4-[(5-methylpyrazin-2-yl)methyl]-5-pyrimidin-5-ylpyrimidine-2,4-diamine] belongs 58%; to `Cc1ccc(Nc2ncc(-c3ccc(C(=O)O)s3)c(NCCCN(C)C)n2)cc1C#N` [Example 337, 5-(2-(3-cyano-4-methylphenylamino)-4-(3-(dimethylamino)propylamino)pyrimidin-5-yl) thiophene-2-carboxylic acid], 64.4%.
